According to patent US7723070B2, “Overexpression of aminoacyl-tRNA synthetases for efficient production of engineered proteins containing amino acid analogues” (California Institute of Technology, priority 2000, dated 2010):
Entries after “also recorded” stand apart in the source; their conditions may differ.

Test system: E. coli strain CAG18491/pQE15/pREP4
Assay: Translational activity: mDHFR synthesis in methionine-depleted cultures of conventional host
Type: cell-based
Conditions: for Protein Yield: mDHFR from 1-liter cultures supplemented with the analogue; for translational activity: capacity to support mDHFR synthesis in absence of methionine (SDS-PAGE): methionine-depleted minimal medium, IPTG induction; for mDHFR produced relative to cultures supplemented with methionine: control yield = methionine
Experimental: Buffers and media were prepared according to standard protocols (Sambrook, J.; Fritsch, E. F.; Maniatis, T. Molecular Cloning: A Laboratory Manual, 2nd Ed. Cold Spring Harbor Laboratory Press, Cold Spring Harbor, N.Y. 1989; Ausubel, F. M.; Brent, K.; Kingston, K. E.; Moore, D. D.; Scidman, J. G.; Smith, J. A.; Struhl, K. Current Protocols in Molecular Biology, John Wiley & Sons, NY 1995). The E. coli methionine auxotroph CAG18491 (λ^−, rph-1, metE3079.:Tn10) (obtained from the Yale E. coli Genetic Stock Center), was transformed with plasmids pREP4 and pQE15 (Qiagen, Valencia, Calif.), to obtain the expression host CAG18491/pQE15/pREP4.
M9AA medium (50 mL) supplemented with 1 mM MgSO4, 0.2 wt % glucose, 1 mg/L thiamine chloride and the antibiotics ampicillin (200 mg/L) and kanamycin (25 mg/L) was inoculated with 2 mL of an overnight culture of CAG18491/pQE15/pREP4. When the turbidity of the culture reached an optical density at 600 nm (OD600) of 0.8, a medium shift was performed. The cells were sedimented for 10 min at 3030 g at 4° C., the supernatant was removed, and the cell pellet was washed twice with 20 mL of M9 medium. Cells were resuspended in 50 mL of the M9AA medium described above, without methionine. […] (0.31 mM), respectively. A culture lacking methionine (or any analogue) served as the negative control. Protein expression was induced by addition of isopropyl-β-D-thiogalactopyranoside (IPTG) to a final concentration of 0.4 mM. Samples were taken every hour for 4 h, the OD600 was measured, and the samples were sedimented. After the supernatant was decanted, the cell pellets were resuspended, in 20 μL distilled H2O.
Protein expression was monitored by SDS polyacrylamide gel electrophoresis (12% acrylamide running gel, 12 mA, 14 h), using a normalized OD600 of 0.2 per sample.
The example presented is for medium supplemented with 3. M9AA medium (100 mL) supplemented with 1 mM MgSO4 0.2 wt % glucose, 1 mg/L thiamine chloride and the antibiotics ampicillin (200 mg/L) and kanamycin (25 mg/L) was inoculated with E. coli strain CAG18491/pQE15/pREP4 and grown overnight at 37° C. This culture was used to inoculate 900 mL M9AA medium supplemented as described. The cells were grown to an OD600 of 0.94 and the medium shift was performed as described for the small scale experiments, followed by addition of 40 mL of 1 mg/mL DL-homopropargylglycine (3). IPTG (0.4 mM) was added, and samples were taken at 1 hour intervals. OD600 was measured, the samples were sedimented and decanted, and the cell pellets were resuspended in 20 μL distilled H2O. Protein expression was monitored by SDS polyacrylamide gel electrophoresis (12% acrylamide running gel, 12 mA, 15 h).
Approximately 4.5 h after induction, cells were sedimented (9,800 g, 10 min, 4° C.) and the supernatant was removed. The pellet was placed in the freezer overnight. The cells were thawed for 30 min at 37° C., 30 mL of buffer (6 M guanidine-HCl, 0.1 M NaH2PO4, 0.01 M Tris, pH 8) was added and the mixture was shaken at room temperature for 1 h. […] The supernatant was loaded on 10 mL of resin which was then washed with 50 mL of guanidine buffer followed by 25 mL of urea buffer (8 M urea, 0.1 M NaH2PO4 and 0.01 M Tris, pH 8). Similar urea buffers were used for three successive 25 mL washes at pH values of 6.3, 5.9 and 4.5, respectively. […] These washes were combined and dialyzed (Spectra/Por membrane 1, MWCO=6-8 kDa) against running distilled water for 4 days, followed by batchwise dialysis against doubly distilled water for one day. […] Amino acid analyses, electrospray mass spectrometry and N-terminal protein sequencing was performed on the mDHFR isolated.

| Compound | Protein Yield [mg/L] | translational activity: capacity to support mDHFR synthesis in absence of methionine (SDS-PAGE) | mDHFR produced relative to cultures supplemented with methionine | substitution/replacement of methionine by analogue (1H NMR, amino acid analysis, N-terminal sequencing together) (mDHFR) |
| --- | --- | --- | --- | --- |
| C/C=C/CC(N)C(=O)O (racemic) [Analogue 5, trans-2-amino-4-hexenoic acid] | 0 | neither 5 or 11 support measurable protein synthesis; also recorded: prevented incorporation; also recorded: neither 4 nor 5 were indicated to be translationally active; also recorded: did not support measurable levels of protein synthesis | – | – |
| C=CCCC(N)C(=O)O (racemic) [Analogue 2, DL-2-amino-5-hexenoic acid] | 10 | exhibit translational activity sufficient to allow protein synthesis; also recorded: serve effectively as methionine surrogates; also recorded: can be detected | 28% | – |
| CCC[C@H](N)C(=O)O [Analogue 8, L-norvaline] | – | neither norvaline (8) nor 7 showed translational activity | – | – |
| 2-butynylglycine [Analogue 11] | 0 | neither 5 or 11 support measurable protein synthesis; also recorded: not detected; also recorded: did not support measurable levels of protein synthesis | – | – |
| C/C=C\CC(N)C(=O)O (racemic) [Analogue 4, cis-2-amino-4-hexenoic acid] | – | prevented incorporation; also recorded: neither 4 nor 5 were indicated to be translationally active | – | – |
| CCCC[C@H](N)C(=O)O [Analogue 9, L-norleucine] | 20 | confirmed; also recorded: does support protein synthesis; also recorded: can be detected | 57% | – |
| CSCC[C@H](N)C(=O)O [Analogue 1, L-methionine, reference compound] | 35 | can be detected | – | – |
| C#CCCC(N)C(=O)O (racemic) [Analogue 3, DL-homopropargylglycine] | 35 | exhibit translational activity sufficient to allow protein synthesis; also recorded: serve effectively as methionine surrogates; also recorded: can be detected | equivalent | near-quantitative replacement of methionine |
| CCCCCC(N)C(=O)O (racemic) [Analogue 7, DL-2-aminoheptanoic acid] | – | neither norvaline (8) nor 7 showed translational activity | – | – |
